Data from paper PMC4685510, “A Cell Biologist’s Field Guide to Aurora Kinase Inhibitors” (Frontiers in Oncology, 2015).

Columns and labels:
Test in all cases: biochemical
Format in all cases: biochemical
[1] = target: 363 human kinases (including Aurora A/B/C) (Homo sapiens, UniProt O95747); details: OSR1/OXSR1; for remaining activity at 0.1 µM: 100 nM
Excerpt: (§1) However, the Aurora A/B selectivity ratios derived from our in vitro and in vivo data can be compared to prioritize inhibitors.

[2] = target: 363 human kinases (including Aurora A/B/C) (Homo sapiens, UniProt P04626); details: ERBB2/HER2, [ATP] 20 µM; for remaining activity at 0.1 µM: 100 nM; for remaining activity at 0.1 µM / remaining activity at 0.5 µM: read-out: % Enzyme Activity (relative to DMSO controls)
Excerpt: as §1

[3] = target: 363 human kinases (including Aurora A/B/C) (Homo sapiens, UniProt P16591); details: FER, [ATP] 50 µM; for remaining activity at 0.1 µM: 100 nM; for remaining activity at 0.1 µM / remaining activity at 0.5 µM: read-out: % Enzyme Activity (relative to DMSO controls)
Excerpt: as §1

[4] = target: 363 human kinases (including Aurora A/B/C) (Homo sapiens, UniProt P17252); details: PKCa; for remaining activity at 0.1 µM: 100 nM; for remaining activity at 0.1 µM / remaining activity at 0.5 µM: read-out: % Enzyme Activity (relative to DMSO controls)
Excerpt: as §1

[5] = target: 363 human kinases (including Aurora A/B/C) (Homo sapiens, UniProt Q00537); details: CDK17/cyclin Y (PCTK2), [ATP] 50 µM; for remaining activity at 0.1 µM: 100 nM; for remaining activity at 0.1 µM / remaining activity at 0.5 µM: read-out: % Enzyme Activity (relative to DMSO controls)
Excerpt: as §1

[6] = target: 363 human kinases (including Aurora A/B/C) (Homo sapiens, UniProt Q8IY84); details: NIM1; for remaining activity at 0.1 µM: 100 nM; for remaining activity at 0.1 µM / remaining activity at 0.5 µM: read-out: % Enzyme Activity (relative to DMSO controls)
Excerpt: as §1

[7] = target: 363 human kinases (including Aurora A/B/C) (Homo sapiens, UniProt Q96SB4); details: SRPK1; for remaining activity at 0.1 µM: 100 nM; for remaining activity at 0.1 µM / remaining activity at 0.5 µM: read-out: % Enzyme Activity (relative to DMSO controls)
Excerpt: as §1

[8] = target: T1, 363 human kinases (including Aurora A/B/C) (Homo sapiens, UniProt Q99759); details: MEKK3; for remaining activity at 0.1 µM: 100 nM; for remaining activity at 0.1 µM / remaining activity at 0.5 µM: read-out: % Enzyme Activity (relative to DMSO controls)
T1 sequence (Q99759 1-626): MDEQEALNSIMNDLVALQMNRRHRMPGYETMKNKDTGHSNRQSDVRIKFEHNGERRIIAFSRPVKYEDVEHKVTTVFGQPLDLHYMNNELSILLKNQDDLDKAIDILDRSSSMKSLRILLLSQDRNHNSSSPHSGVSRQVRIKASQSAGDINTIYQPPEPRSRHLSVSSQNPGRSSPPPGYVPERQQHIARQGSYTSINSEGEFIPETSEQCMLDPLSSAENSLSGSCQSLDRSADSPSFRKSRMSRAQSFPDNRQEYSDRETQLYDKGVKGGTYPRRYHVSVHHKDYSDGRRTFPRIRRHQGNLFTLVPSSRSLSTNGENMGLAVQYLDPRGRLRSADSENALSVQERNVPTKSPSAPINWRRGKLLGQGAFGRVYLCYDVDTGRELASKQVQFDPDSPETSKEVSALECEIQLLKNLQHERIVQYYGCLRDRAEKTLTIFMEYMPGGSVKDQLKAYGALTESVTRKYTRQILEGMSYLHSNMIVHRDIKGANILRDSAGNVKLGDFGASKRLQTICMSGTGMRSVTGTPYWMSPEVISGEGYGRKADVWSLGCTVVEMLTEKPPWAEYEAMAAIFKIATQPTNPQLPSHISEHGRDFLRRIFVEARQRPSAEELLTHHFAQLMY
Excerpt: as §1

[9] = target: 363 human kinases (including Aurora A/B/C) (Homo sapiens, UniProt Q9P1W9); details: PIM2; for remaining activity at 0.1 µM: 100 nM; for remaining activity at 0.1 µM / remaining activity at 0.5 µM: read-out: % Enzyme Activity (relative to DMSO controls)
Excerpt: as §1

[10] = target: T2, 363 human kinases (including Aurora A/B/C) (Homo sapiens, UniProt Q9UKI8); details: TLK1; for remaining activity at 0.1 µM: 100 nM; for remaining activity at 0.1 µM / remaining activity at 0.5 µM: read-out: % Enzyme Activity (relative to DMSO controls)
T2 sequence (Q9UKI8 1-766): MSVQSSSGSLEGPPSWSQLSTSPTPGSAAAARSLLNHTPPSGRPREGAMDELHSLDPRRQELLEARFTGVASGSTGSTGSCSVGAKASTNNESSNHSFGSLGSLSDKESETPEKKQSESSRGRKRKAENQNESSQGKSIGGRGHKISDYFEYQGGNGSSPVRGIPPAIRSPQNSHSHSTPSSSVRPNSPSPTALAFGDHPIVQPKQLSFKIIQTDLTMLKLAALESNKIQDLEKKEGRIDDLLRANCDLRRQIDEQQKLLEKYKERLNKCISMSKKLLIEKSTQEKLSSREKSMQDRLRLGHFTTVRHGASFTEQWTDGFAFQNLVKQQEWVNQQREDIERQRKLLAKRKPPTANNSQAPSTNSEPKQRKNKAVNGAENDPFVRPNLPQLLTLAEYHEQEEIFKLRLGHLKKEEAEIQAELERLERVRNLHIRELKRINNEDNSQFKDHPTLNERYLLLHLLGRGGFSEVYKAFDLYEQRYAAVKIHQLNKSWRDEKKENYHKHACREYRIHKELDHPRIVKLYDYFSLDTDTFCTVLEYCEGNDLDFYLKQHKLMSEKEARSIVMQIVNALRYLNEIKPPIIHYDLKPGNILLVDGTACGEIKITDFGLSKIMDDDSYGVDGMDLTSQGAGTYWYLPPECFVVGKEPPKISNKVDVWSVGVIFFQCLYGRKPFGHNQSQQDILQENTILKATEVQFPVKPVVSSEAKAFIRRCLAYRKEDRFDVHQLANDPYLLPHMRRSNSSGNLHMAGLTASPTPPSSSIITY
Excerpt: as §1

[11] = read-out: % Enzyme Activity (relative to DMSO controls)

Sequence of 363 human kinases (including Aurora A/B/C) (Homo sapiens, UniProt P16591) (P16591 whole entry): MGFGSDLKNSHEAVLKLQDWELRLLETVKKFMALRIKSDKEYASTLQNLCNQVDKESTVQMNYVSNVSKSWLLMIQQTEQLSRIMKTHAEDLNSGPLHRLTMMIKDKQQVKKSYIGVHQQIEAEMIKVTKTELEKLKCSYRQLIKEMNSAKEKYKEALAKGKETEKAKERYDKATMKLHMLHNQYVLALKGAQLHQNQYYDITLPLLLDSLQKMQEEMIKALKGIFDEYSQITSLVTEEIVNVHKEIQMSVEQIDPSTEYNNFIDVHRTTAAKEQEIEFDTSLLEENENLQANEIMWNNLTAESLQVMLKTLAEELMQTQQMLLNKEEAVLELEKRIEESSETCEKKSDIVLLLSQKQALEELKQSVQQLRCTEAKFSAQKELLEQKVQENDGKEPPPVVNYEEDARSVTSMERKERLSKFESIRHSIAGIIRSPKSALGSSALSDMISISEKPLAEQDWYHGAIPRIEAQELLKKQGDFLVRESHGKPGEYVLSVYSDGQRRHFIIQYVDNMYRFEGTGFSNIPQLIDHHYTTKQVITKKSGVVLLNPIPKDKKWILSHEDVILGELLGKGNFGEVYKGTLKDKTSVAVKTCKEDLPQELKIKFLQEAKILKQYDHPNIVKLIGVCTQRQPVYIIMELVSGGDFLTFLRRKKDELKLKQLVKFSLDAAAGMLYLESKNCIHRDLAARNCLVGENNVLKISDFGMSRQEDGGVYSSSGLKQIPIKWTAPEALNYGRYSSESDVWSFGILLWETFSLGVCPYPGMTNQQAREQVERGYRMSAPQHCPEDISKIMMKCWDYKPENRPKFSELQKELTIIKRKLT
Sequence of 363 human kinases (including Aurora A/B/C) (Homo sapiens, UniProt Q9P1W9) (Q9P1W9 whole entry): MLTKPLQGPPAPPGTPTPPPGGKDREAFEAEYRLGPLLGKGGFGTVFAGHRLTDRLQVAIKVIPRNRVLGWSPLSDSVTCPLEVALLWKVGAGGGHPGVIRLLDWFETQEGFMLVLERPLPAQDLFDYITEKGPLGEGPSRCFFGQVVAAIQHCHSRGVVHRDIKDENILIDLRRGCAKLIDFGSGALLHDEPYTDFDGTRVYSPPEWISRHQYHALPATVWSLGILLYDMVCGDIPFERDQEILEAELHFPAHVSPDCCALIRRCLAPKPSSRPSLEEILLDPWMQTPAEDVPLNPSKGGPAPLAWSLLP
Sequence of 363 human kinases (including Aurora A/B/C) (Homo sapiens, UniProt Q8IY84) (Q8IY84 whole entry): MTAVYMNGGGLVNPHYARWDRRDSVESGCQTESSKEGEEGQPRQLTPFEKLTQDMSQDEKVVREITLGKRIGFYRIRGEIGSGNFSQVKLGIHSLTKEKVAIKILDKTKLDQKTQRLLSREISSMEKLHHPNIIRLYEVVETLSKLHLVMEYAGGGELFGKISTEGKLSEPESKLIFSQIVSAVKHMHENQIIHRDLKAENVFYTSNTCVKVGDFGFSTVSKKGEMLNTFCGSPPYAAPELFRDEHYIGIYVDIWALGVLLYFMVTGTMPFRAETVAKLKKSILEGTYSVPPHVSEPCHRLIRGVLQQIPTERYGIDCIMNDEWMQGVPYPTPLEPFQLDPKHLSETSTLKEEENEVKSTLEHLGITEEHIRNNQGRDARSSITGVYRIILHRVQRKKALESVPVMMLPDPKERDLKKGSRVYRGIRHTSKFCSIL
Sequence of 363 human kinases (including Aurora A/B/C) (Homo sapiens, UniProt P04626) (P04626 23-1255): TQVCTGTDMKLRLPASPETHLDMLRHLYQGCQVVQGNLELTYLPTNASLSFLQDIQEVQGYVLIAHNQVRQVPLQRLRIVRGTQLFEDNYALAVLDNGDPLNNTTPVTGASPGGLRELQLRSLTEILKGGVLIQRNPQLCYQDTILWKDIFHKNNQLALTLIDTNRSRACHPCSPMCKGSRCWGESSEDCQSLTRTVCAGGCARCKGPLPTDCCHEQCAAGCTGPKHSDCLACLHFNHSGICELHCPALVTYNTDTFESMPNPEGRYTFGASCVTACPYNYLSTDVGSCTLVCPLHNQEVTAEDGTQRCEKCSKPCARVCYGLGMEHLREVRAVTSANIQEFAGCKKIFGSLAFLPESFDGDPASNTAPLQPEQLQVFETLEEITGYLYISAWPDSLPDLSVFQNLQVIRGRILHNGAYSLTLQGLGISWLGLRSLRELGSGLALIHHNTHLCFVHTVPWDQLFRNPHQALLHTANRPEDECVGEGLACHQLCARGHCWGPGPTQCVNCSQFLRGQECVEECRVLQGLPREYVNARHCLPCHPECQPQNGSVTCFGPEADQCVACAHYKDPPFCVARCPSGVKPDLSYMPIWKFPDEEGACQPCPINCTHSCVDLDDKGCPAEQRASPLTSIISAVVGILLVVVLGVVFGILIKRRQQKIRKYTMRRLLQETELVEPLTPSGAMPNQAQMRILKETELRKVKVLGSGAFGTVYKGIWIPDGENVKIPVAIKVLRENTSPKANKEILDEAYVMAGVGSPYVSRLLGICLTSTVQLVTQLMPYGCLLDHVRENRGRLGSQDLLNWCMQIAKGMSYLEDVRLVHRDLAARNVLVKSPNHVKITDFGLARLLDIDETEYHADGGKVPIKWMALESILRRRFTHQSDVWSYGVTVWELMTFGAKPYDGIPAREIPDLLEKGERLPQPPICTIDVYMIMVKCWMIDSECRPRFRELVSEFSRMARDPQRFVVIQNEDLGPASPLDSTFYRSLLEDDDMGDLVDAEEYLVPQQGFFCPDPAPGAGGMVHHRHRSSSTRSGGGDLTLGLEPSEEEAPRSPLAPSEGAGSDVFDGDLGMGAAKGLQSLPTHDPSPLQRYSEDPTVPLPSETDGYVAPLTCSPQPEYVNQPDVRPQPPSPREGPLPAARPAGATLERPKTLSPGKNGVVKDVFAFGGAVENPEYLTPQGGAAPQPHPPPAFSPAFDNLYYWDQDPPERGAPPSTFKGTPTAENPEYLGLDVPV
Sequence of 363 human kinases (including Aurora A/B/C) (Homo sapiens, UniProt Q00537) (Q00537 whole entry): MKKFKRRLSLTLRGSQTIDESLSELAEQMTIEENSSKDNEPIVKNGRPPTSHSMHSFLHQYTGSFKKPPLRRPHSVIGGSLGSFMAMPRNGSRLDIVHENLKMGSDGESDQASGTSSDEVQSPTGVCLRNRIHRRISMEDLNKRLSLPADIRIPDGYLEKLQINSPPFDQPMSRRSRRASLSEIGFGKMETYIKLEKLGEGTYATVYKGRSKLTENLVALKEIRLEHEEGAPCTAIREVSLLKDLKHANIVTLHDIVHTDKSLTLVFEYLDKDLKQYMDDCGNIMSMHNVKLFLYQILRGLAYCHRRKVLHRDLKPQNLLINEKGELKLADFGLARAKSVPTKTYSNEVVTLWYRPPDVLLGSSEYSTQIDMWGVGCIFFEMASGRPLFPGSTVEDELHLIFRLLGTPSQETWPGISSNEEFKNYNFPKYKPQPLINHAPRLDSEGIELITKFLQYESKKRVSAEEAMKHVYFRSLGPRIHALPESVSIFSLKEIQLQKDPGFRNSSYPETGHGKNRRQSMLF
Sequence of 363 human kinases (including Aurora A/B/C) (Homo sapiens, UniProt O95747) (O95747 whole entry): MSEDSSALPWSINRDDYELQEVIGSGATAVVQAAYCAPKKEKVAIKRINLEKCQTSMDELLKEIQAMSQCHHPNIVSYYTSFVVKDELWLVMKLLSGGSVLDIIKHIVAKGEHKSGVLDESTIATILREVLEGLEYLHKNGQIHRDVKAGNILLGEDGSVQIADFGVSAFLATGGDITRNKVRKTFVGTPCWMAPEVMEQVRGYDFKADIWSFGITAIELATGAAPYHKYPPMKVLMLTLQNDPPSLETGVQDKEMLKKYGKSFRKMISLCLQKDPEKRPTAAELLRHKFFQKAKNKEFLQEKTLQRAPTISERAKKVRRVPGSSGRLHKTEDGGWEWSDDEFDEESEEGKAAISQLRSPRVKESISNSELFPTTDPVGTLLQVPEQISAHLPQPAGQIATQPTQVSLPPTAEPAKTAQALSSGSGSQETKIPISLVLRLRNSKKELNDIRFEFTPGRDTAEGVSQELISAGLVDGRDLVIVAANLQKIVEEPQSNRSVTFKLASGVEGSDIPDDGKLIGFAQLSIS

Compound | remaining activity at 0.1 µM [1, 11] | remaining activity at 0.1 µM [2] | remaining activity at 0.1 µM [3] | remaining activity at 0.1 µM [4] | remaining activity at 0.1 µM [5] | remaining activity at 0.1 µM [6] | remaining activity at 0.1 µM [7] | remaining activity at 0.1 µM [8] | remaining activity at 0.1 µM [9] | remaining activity at 0.1 µM [10] | remaining activity at 0.5 µM ([2]; 500 nM) | remaining activity at 0.5 µM ([3]; 500 nM) | remaining activity at 0.5 µM ([4]; 500 nM) | remaining activity at 0.5 µM ([5]; 500 nM) | remaining activity at 0.5 µM ([6]; 500 nM) | remaining activity at 0.5 µM ([7]; 500 nM) | remaining activity at 0.5 µM ([8]; 500 nM) | remaining activity at 0.5 µM ([9]; 500 nM) | remaining activity at 0.5 µM ([10]; 500 nM) | further results
CCn1cc(-c2ccnc3[nH]c(-c4cccc(CN(C)C)c4)cc23)c(-c2ccc(NC(=O)N(C)C)cc2)n1 [GSK1070916] | 95% | 103% | 96.5% | 99.6% | 90.9% | 94.8% | 103% | 97.2% | 87.2% | 120% |  |  |  |  |  |  |  |  |  | 
O=C(O)[C@]1(Cc2cccc(Nc3nccs3)n2)CC[C@@H](Oc2cccc(Cl)c2F)CC1 [MK-5108] | 98.9% | 100% | 87% | 69.8% | 95.4% | 96.8% | 101% | 96.3% | 104% | 95.7% | 111% | 49.8% | 33.2% | 81.9% | 96.4% | 95.5% | 117% | 88.5% | 116% | 
O=C(c1cccc(Cl)c1F)N1CCN(Cc2cccc(Nc3nccs3)n2)CC1 [MK-8745] |  |  |  |  |  |  |  |  |  |  | 99.8% | 83.7% | 95.4% | 87% | 97.2% | 101% | 114% | 93.8% | 125% | % Enzyme Activity (relative to DMSO controls) ([1]; 500 nM): 93.31%; remaining activity at 0.5 µM ([1]; 500 nM, read-out: % Enzyme Activity (relative to DMSO controls)): 93.3%; % Enzyme Activity (relative to DMSO controls) ([2]; 500 nM): 99.40%; % Enzyme Activity (relative to DMSO controls) ([3]; 500 nM): 82.62%; % Enzyme Activity (relative to DMSO controls) ([4]; 500 nM): 92.64%; % Enzyme Activity (relative to DMSO controls) ([5]; 500 nM): 86.82%; % Enzyme Activity (relative to DMSO controls) ([6]; 500 nM): 97.14%; % Enzyme Activity (relative to DMSO controls) ([7]; 500 nM): 99.92%; % Enzyme Activity (relative to DMSO controls) ([8]; 500 nM): 111.88%; % Enzyme Activity (relative to DMSO controls) ([9]; 500 nM): 93.64%; % Enzyme Activity (relative to DMSO controls) ([10]; 500 nM): 119.91%
